Results as given in ChEMBL document CHEMBL1201862, “PubChem BioAssay data set” (2004).
The source made the active and inactive calls.

Key:
[1] = alpha-synuclein stem-loop luciferase translation blockers – H4 neuroglioma cells, luminescence, confirmation (AID 1988); format: functional, cell-based
[2] = Luminescence Cell-Based Dose Response HTS to Identify Inhibitors of 5'UTR Stem-Loop Driven Prion Protein mRNA Translation in H4 Neuroglioblastoma Cells. [Related pubchem assays: 1827 (Project Summary), 1813 (Primary HTS)]; format: functional
[3] = luciferase reporter signal suppression in cells – H4 neuroglioma cells, luminescence, dose response (AID 1990); format: functional, cell-based
[4] = biological target: T1, Zinc finger protein mex-5 (Caenorhabditis elegans, UniProt Q9XUB2); experiment: potency of MEX-5 RNA-binding blockers – biochemical, C. elegans, fluorescence polarization, dose response (AID 1960)
T1 sequence (Q9XUB2 whole entry): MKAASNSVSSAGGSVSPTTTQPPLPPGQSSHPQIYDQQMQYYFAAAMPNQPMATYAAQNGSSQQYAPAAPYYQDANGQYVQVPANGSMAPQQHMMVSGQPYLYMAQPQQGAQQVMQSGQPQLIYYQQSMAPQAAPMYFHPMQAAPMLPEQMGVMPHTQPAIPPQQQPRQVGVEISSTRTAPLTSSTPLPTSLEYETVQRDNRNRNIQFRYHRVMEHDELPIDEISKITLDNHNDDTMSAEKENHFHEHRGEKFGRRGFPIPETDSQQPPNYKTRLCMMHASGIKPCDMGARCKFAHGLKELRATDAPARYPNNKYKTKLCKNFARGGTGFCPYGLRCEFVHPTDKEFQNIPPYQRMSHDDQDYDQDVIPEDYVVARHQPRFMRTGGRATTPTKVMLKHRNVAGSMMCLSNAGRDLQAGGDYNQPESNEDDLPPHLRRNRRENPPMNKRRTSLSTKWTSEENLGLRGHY

[5] = biological target: T2, RNA-binding protein pos-1 (Caenorhabditis elegans, UniProt G5EF15); experiment: disruptors of C. elegans POS-1 RNA interaction – biochemical, fluorescence polarization, dose response (AID 1964);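 note: purified POS-1 fused to maltose binding protein made in E. coli; potency of compounds blocking POS-1 binding to fluorescent RNA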
T2 sequence (G5EF15 whole entry): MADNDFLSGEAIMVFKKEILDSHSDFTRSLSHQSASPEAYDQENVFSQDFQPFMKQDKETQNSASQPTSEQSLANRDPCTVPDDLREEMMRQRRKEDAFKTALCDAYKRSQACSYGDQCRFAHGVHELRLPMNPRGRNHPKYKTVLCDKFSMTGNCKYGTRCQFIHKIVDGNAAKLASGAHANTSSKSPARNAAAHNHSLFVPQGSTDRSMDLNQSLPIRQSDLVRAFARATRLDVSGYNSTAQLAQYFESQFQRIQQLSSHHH

[6] = microbe, parasite or virus in culture; format: functional; conditions: Mycobacterium tuberculosis
Leucine aminopeptidase = biological target: T3, Leucine aminopeptidase (Plasmodium falciparum 3D7, UniProt Q8IL11); experiment: P. falciparum M17LAP inhibitors, primary screen, biochemical, fluorogenic H-Leu-NHMec substrate, 1536-well (AID 1619); format: functional
T3 sequence (Q8IL11 whole entry): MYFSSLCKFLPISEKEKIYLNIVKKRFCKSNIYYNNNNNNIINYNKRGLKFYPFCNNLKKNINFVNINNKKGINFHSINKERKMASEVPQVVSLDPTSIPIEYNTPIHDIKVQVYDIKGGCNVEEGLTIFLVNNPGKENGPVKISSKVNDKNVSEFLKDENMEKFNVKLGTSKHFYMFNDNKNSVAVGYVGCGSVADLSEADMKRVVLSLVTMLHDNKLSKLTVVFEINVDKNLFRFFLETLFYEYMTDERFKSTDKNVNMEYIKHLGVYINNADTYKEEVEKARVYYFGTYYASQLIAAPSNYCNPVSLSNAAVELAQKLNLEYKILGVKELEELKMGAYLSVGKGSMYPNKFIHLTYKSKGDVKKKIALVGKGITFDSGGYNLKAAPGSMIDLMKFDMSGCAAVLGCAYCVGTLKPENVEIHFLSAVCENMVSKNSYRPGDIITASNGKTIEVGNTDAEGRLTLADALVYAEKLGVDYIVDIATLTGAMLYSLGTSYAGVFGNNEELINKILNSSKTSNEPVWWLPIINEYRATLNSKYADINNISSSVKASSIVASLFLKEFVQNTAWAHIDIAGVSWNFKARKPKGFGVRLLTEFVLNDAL

Protein skinhead-1 = biological target: T4, Protein skinhead-1 (Caenorhabditis elegans, UniProt P34707); format: functional
T4 sequence (P34707 whole entry): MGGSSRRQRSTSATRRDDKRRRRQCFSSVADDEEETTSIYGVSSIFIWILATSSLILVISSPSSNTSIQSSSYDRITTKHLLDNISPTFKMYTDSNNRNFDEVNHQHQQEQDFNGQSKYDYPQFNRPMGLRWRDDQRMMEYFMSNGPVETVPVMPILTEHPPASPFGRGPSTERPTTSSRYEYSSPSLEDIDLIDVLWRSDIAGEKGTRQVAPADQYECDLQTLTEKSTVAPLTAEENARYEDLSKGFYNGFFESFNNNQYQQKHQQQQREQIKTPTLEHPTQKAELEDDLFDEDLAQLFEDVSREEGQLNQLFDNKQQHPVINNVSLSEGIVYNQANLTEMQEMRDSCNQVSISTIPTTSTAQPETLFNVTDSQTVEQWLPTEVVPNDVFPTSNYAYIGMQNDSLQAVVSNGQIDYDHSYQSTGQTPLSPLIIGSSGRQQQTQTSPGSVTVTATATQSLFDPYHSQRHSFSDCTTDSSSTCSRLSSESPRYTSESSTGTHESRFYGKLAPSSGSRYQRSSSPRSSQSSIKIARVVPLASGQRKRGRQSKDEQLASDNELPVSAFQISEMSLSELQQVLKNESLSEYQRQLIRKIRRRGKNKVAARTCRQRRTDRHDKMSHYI

INS1 = experiment: INS-1E survival protection against cytokine death – cell-based, luminescence, retest, dose response (AID 449756); format: functional; conditions: Rattus norvegicus;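 note: cell death triggered by IL-1 beta plus TNF-alpha plus IFN-gamma mixture; protective hits raise ATP signal compared with cytokine alone wells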
[7] = viability of uninfected HEp-2 cells – cell-based, HTS, cytotoxicity control for RSV inhibitor project, dose response (AID 2410); format: functional; conditions: human respiratory syncytial virus
[8] = Luminescence Cell-Based Dose Retest to Confirm Inhibitors of Cancer Stem Cells. [Related pubchem assays (depositor defined):AID2717, AID2721]; format: functional; conditions: Homo sapiens
Cytochrome P450 1A2 = biological target: T5, Cytochrome P450 1A2 (Homo sapiens, UniProt P05177);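 note: PubChem cytochrome P450 panel assay, CYP1A2 panel member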
T5 sequence (P05177 whole entry): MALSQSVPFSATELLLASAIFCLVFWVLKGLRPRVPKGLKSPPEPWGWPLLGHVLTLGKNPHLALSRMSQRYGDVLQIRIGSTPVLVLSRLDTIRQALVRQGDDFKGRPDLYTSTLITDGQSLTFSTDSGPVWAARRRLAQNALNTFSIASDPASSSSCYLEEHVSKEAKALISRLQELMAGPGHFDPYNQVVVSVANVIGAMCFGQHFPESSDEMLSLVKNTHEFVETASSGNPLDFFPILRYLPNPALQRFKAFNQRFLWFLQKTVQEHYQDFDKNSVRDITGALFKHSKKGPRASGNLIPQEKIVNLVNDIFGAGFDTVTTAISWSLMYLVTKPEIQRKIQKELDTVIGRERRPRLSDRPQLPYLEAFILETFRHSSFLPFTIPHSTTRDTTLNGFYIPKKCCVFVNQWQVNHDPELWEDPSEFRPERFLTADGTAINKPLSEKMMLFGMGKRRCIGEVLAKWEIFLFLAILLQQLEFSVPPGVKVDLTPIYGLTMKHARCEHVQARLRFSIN

Cytochrome P450 2D6 = Cytochrome P450 2D6 (Homo sapiens, UniProt P10635);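 note: CYP2D6 member of a cytochrome P450 panel assay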
Cytochrome P450 2D6, sequence (P10635 whole entry): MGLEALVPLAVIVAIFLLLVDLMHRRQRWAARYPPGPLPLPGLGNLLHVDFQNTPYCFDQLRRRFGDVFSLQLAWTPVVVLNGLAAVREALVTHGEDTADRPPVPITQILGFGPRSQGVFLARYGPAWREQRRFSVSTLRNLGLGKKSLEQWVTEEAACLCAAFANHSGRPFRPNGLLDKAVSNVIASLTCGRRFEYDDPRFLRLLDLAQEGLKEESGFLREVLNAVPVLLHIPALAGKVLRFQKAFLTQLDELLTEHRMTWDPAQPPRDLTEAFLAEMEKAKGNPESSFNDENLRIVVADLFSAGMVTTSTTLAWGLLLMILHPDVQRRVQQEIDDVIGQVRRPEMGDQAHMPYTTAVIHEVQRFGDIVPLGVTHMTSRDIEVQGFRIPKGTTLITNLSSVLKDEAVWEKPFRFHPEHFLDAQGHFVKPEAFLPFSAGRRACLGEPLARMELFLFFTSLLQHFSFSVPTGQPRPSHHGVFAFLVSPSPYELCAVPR

Cytochrome P450 3A4 = Cytochrome P450 3A4 (Homo sapiens, UniProt P08684);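 note: CYP3A4 tested as one member of a cytochrome P450 panel screen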
Cytochrome P450 3A4, sequence (P08684 whole entry): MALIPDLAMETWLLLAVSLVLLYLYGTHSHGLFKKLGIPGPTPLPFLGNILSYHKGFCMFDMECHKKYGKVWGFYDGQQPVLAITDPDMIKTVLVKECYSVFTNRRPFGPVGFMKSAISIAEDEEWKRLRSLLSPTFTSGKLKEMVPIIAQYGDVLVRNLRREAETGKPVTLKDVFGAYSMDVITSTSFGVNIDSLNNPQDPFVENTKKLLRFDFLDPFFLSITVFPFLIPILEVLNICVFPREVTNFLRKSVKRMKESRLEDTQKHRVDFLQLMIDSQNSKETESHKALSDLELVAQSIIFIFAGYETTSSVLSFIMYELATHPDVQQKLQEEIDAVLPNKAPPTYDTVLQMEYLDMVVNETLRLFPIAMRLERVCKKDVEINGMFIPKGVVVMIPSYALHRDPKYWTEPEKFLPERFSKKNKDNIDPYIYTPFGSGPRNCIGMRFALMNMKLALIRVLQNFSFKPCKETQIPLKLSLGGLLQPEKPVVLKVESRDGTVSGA

Cc1cc(C(=O)Nc2ccc(CC(=O)O)cc2)c(C)o1
EC50 [1]: 18.1 µM (active)
EC50 [2]: 23.1 µM (active)
EC50 [3]: 12.9 µM (active)

COc1ccc(/C=C/C(=O)Nc2ccc(-n3nncc3-c3ccc(OC)c(OC)c3)cc2)cc1OC
EC50 [1]: 16.5 µM (active)
EC50 [2]: > 120 µM (not active)
EC50 [3]: 23.4 µM (active)

CCCCCCCCOc1ccc(C2OC34CCCCC3C(C#N)(C#N)C2(C#N)C(=N)O4)cc1 (centres undefined)
EC50 [4]: 11.8 µM (active)
EC50 [5]: 13 µM (active)

COc1ccc(NCc2n[nH]nc2-c2ccccc2)cc1Cl
CC50 [6]: > 40 µM (active)

CCCc1cc(O)nc(SCC(=O)N(C)CC(=O)Nc2ccc(C)cc2)n1
IC50 (Leucine aminopeptidase): 9.77 µM (active)

O=C(CSc1nnc[nH]1)Nc1cccc2ccccc12
IC50 (Leucine aminopeptidase): 29.2 µM (active)

C=CCn1c(CNC(=O)c2ccco2)nnc1SCC(=O)Nc1cccc(Br)c1
IC50 (Leucine aminopeptidase): 90.1 µM (active)

CCn1c(C)c(C)c2cc(C(=O)N3CCc4ccccc4C3)ccc21
IC50 (Protein skinhead-1): > 100 µM (inactive)
AC50 (INS1): 4.05 µM (active)

CCCSc1nnc(N2C(=O)C(O)=C(C(=O)c3ccco3)C2c2ccccc2F)s1 (centres undefined)
EC50 [4]: > 300 µM (not active)
EC50 [5]: > 300 µM (inconclusive)

COc1ccc(N/C(=C(/C(Cl)=C(Cl)Cl)[N+](=O)[O-])n2nnc3ccccc32)cc1
EC50 [4]: 49.1 µM (inconclusive)
EC50 [5]: 88.5 µM (active)

CCCC(=O)c1c(NC(C)C)cc(C)oc1=O
EC50 [1]: > 120 µM (not active)
EC50 [2]: > 120 µM (not active)
EC50 [3]: > 120 µM (not active)

COCC(C)n1c(SCc2cc(=O)n3cc(C)ccc3n2)nc2ccccc2c1=O (centres undefined)
CC50 [7]: 49.5 µM (active)
EC50 [1]: > 120 µM (not active)
EC50 [2]: 12.6 µM (active)
EC50 [3]: > 120 µM (not active)

c1ccc(-c2csc(-c3ccncc3)n2)cc1
IC50 (Protein skinhead-1): 4.05 µM (active)

O=C(/C=C/c1ccc(OCCCF)cc1)Nc1ccnc(-c2cccnc2)n1
EC50 [4]: 20.6 µM (active)
EC50 [5]: 22.8 µM (active)

Cc1cc(C)c(NC(=O)CN2C(=O)NC3(CCCCC3)C2=O)c(Cl)c1
IC50 (Leucine aminopeptidase): 29.3 µM (active)

CCn1cc(C=C2C(=O)NC(=O)NC2=O)c2ccccc21
EC50 [4]: > 300 µM (inconclusive)
EC50 [5]: 28.7 µM (inconclusive)

Cc1ccc2c(c1)cc1c(=O)n(CC(=O)NCc3ccccn3)nc(C)n12
EC50 [1]: > 120 µM (not active)
EC50 [2]: > 120 µM (not active)
EC50 [3]: > 120 µM (not active)

CC(C)CCNC(=O)c1ccc2c(SCC(=O)O)c3c(nc2c1)CCCC3
IC50 (Leucine aminopeptidase): 39.2 µM (active)

O=C1NC(=O)N(CC2CCCO2)C(=O)/C1=C/c1c[nH]c2ccccc12 (centres undefined)
EC50 [4]: > 300 µM (not active)
EC50 [5]: > 300 µM (not active)

CCOCCCNC(=O)C(c1ccc(Cl)cc1)N1CCC2(CC1)OCCO2 (centres undefined)
IC50 (Protein skinhead-1): > 100 µM (inactive)

Cc1cc(C(=O)O)ccc1-n1c(C)cc(/C=C2\SC(=O)NC2=O)c1C
EC50 [4]: > 300 µM (not active)
EC50 [5]: > 300 µM (not active)

Cc1cc(C)cc(NC(=O)CSc2ncc(S(=O)(=O)c3ccccc3)c(=O)[nH]2)c1
IC50 (Leucine aminopeptidase): 11.9 µM (active)

O=C(Nc1nn[nH]n1)c1cccc([N+](=O)[O-])c1
EC50 [1]: > 120 µM (not active)
EC50 [2]: > 120 µM (not active)
EC50 [3]: > 120 µM (not active)

COc1ccc(-c2c[nH]nc2-c2ccc(OCC(=O)NN)cc2O)cc1OC
EC50 [4]: 2.07 µM (active)
EC50 [5]: > 300 µM (not active)

Cc1cccc(NC(=O)c2ccc(COc3ccc(Cl)cc3Cl)o2)n1
AC50 [8]: 1.18 µM (active)

CCCCn1c2c(c(=O)n(C)c1=O)C(c1ccc(OC)cc1)N1CCCCCC1=N2 (centres undefined)
EC50 [1]: > 120 µM (not active)
EC50 [2]: > 120 µM (not active)
EC50 [3]: 39.2 µM (active)

COc1ccc2c(c1)c(C(O)CN1CCN(Cc3ccc4c(c3)OCO4)CC1)c(C)n2C (centres undefined)
IC50 (Protein skinhead-1): > 100 µM (inactive)

Cc1cc(=O)n2c(c1C#N)SC1CCCCC12O (centres undefined)
EC50 [1]: > 120 µM (not active)
EC50 [2]: > 120 µM (not active)
EC50 [3]: > 120 µM (not active)

CCCC(=O)Nc1ccc(C(=O)/C=C/c2ccc(SC)cc2)cc1
AC50 (Cytochrome P450 1A2): 12.6 µM (inconclusive)
CC50 [6]: > 40 µM (active)
AC50 (Cytochrome P450 2D6): 7.94 µM (inconclusive)
AC50 (Cytochrome P450 3A4): 3.16 µM (inconclusive)

CCn1cc([N+](=O)[O-])c(C(=O)Nc2nc(-c3ccc(C)cc3)c(C)s2)n1
AC50 [8]: 4.24 µM (active)

Cc1ccc(-c2nc(-c3ccncc3)no2)c(C)c1
IC50 (Protein skinhead-1): 40.9 µM (active)

CC1=C(C(=O)OCC2CCCO2)C(c2ccccc2OC(C)C)C2=C(O)CC(c3ccco3)CC2=N1 (centres undefined)
IC50 (Protein skinhead-1): > 100 µM (inactive)

CC1(C)CC[C@]2(CO)[C@@H](O)C[C@]3(C)C(=CCC4[C@@]5(C)CC[C@H](O)C(C)(C)C5CC[C@]43C)[C@@H]2C1 (some centres undefined)
AC50 [8]: 3.14 µM (active)

COc1ccc(CCNC(=O)COc2nsnc2N2CCOCC2)cc1OC
IC50 (Protein skinhead-1): > 100 µM (inactive)

O=C(C=Cc1cccs1)c1ccc(Cl)s1
IC50 (Protein skinhead-1): 19.7 µM (active)

CC1=NNC(=O)C1CCC(=O)N/N=C/C(Br)=C/c1ccccc1 (centres undefined)
IC50 (Leucine aminopeptidase): 8 µM (active)

CCOCCCn1/c(=N/C(C)=O)c(C#N)cc2c(=O)n3ccccc3nc21
EC50 [4]: > 300 µM (not active)
EC50 [5]: > 300 µM (not active)

Cc1ccccc1N/N=C/c1c(C)nc2ccccn12
CC50 [6]: > 40 µM (active)
CC50 [7]: 33.2 µM (active)
